This data set is described as follows: logP determination by reversed-phase HPLC (EEC Directive 79/831 Annex V.A8). The source says: Die Messung der logP Werte erfolgte gemäß EEC Directive 79/831 Annex V.A8 durch HPLC (High Performance Liquid Chromatography) an reverser Phase Säulen (C 18), mit nachfolgenden Methoden: • ^[a] Die Bestimmung erfolgt bei pH 2.3 mit 0,1% wässriger Phosphorsäure und Acetonitril als Eluenten (linearer Gradient von 10 bis 95% Acetonitril). • ^[b] Die Bestimmung erfolgt mit LC-MS bei pH 2,7 mit 0,1 % wässriger Ameisensäure und Acetonitril als Eluenten (linearer Gradient von 10% bis 95% Acetonitril). • ^[c] Die Bestimmung erfolgt mit LC-MS bei pH 7,8 mit 0,001 M wässriger Ammoniumhydrogencarbonat-Lösung und Acetonitril als Eluenten (linearer Gradient von 10 % bis 95 % Acetonitril).
Die Eichung erfolgt mit unverzweigten Alkan-2-onen (mit 3 bis 16 Kohlenstoffatomen), deren logP-Werte bekannt sind (Bestimmung der logP-Werte anhand der Retentionszeiten durch lineare Interpolation zwischen zwei aufeinander folgenden Alkanonen). Die lambda-maX-Werte wurden an Hand der UV-Spektren von 200 bis 400 nm in den Absorptionsmaxima ermittelt.

Where [1] appears, read: aqueous ammonium hydrogen carbonate/acetonitrile, pH 7.8.
Where [2] appears, read: method [a]: pH 2.3, 0,1% aqueous phosphoric acid and acetonitrile, linear gradient 10 to 95% acetonitrile.
The mark [3] stands for this setting: 0.1% aqueous phosphoric acid/acetonitrile, pH 2.3.
Where [4] appears, read: method [c]: LC-MS, pH 7,8, 0,001 M aqueous ammonium hydrogen carbonate and acetonitrile, linear gradient 10 % to 95 % acetonitrile.

For the compound `Cc1cc(C(F)(C(F)(F)F)C(F)(F)F)ccc1NC(=O)c1cccc(I)c1C(=O)N[C@@H](C)CS(C)(=O)=O` [compound 1], under setting [1], the chromatographic logP (as a rule, a lipophilicity value derived from retention on a column) is 3.2. The log p under setting [2] was 3,18.
As to `Cc1c(NC(=O)c2cccc(I)c2C(=O)N[C@@H](C)C[S+](C)[O-])ccc(C(F)(C(F)(F)F)C(F)(F)F)c1F` (stereo partly shown) [compound 8], under setting [2], the log p was 2,78^[a].
With `CC[S+]([O-])C[C@H](C)NC(=O)c1c(I)cccc1C(=O)Nc1ccc(C(F)(C(F)(F)F)C(F)(F)F)c(F)c1C` (stereo partly shown) [compound 9], under setting [2], the log p was 2,97^[a].
For `CSC[C@H](C)NC(=O)c1c(Cl)cccc1C(=O)Nc1ccc(C(F)(F)C(F)(F)F)c(F)c1C` [compound 11], the log p (method [b]: LC-MS, pH 2,7, 0,1 % aqueous formic acid and acetonitrile, linear gradient 10% to 95% acetonitrile) was 3,94^[b].
With `CCS(=O)(=O)C[C@H](C)NC(=O)c1c(Cl)cccc1C(=O)Nc1ccc(C(F)(F)C(F)(F)F)c(Cl)c1C` [compound 12], the log p under setting [2] is 3,14^[a].
Take `Cc1c(NC(=O)c2cccc(Cl)c2C(=O)N[C@@H](C)CS(C)(=O)=O)ccc(C(F)(F)C(F)(F)F)c1F` [compound 13]: under setting [2], the log p is 2,82^[a].
In the case of `CCS(=O)(=O)C[C@H](C)NC(=O)c1c(Cl)cccc1C(=O)Nc1ccc(C(F)(F)C(F)(F)F)c(F)c1C` [compound 14], the log p under setting [2] was 3,01^[a].
In the case of `CSC[C@H](C)NC(=O)c1c(Br)cccc1C(=O)Nc1ccc(C(F)(F)C(F)(F)F)c(F)c1C` [compound 15], the log p under setting [2] is 3,93^[a].
On to `Cc1c(NC(=O)c2cccc(Br)c2C(=O)N[C@@H](C)CS(C)(=O)=O)ccc(C(F)(F)C(F)(F)F)c1F` [compound 16], for which, under setting [2], the log p is 2,86^[a].
Take `CSC[C@H](C)NC(=O)c1c(Br)cccc1C(=O)Nc1ccc(C(F)(C(F)(F)F)C(F)(F)F)c(F)c1C` [compound 17]: under setting [2], the log p is 4,31^[a].
Still for that read-out and setting: for `CCSC[C@H](C)NC(=O)c1c(I)cccc1C(=O)Nc1ccc(C(F)(C(F)(F)F)C(F)(F)F)c(F)c1C` [compound 19] the value was 4,71^[a]; for `CCS(=O)(=O)C[C@H](C)NC(=O)c1c(I)cccc1C(=O)Nc1ccc(C(F)(C(F)(F)F)C(F)(F)F)c(F)c1C` [compound 21], 3,47^[a]; for `CCS(=O)(=O)C[C@H](C)NC(=O)c1c(Br)cccc1C(=O)Nc1ccc(C(F)(F)C(F)(F)F)c(Cl)c1C` [compound 22], 3,19^[a].
Consider `CSC[C@H](C)NC(=O)c1c(I)cccc1C(=O)Nc1ccc(C(F)(F)C(F)(F)F)c(F)c1C` [compound 23], for which the log p under setting [2] was 4,04^[a].
Turning to `Cc1c(NC(=O)c2cccc(I)c2C(=O)N[C@@H](C)CS(C)(=O)=O)ccc(C(F)(F)C(F)(F)F)c1F` [compound 24], the log p under setting [2] was 2,97^[a].
For `CSC[C@H](C)NC(=O)c1c(I)cccc1C(=O)Nc1ccc(C(F)(C(F)(F)F)C(F)(F)F)c(F)c1C` [compound 25], under setting [2], the log p was 4,41^[a].
Take `CSC[C@H](C)NC(=O)c1c(I)cccc1C(=O)Nc1ccc(C(F)(F)C(F)(F)F)c(Cl)c1C` [compound 26]: the log p under setting [2] was 4,2^[a].
Still for that read-out and setting: for `Cc1c(NC(=O)c2cccc(I)c2C(=O)N[C@@H](C)CS(C)(=O)=O)ccc(C(F)(C(F)(F)F)C(F)(F)F)c1F` [compound 27] the value was 3,27^[a]; for `CSC[C@H](C)NC(=O)c1c(Br)cccc1C(=O)Nc1ccc(C(F)(C(F)F)C(F)(F)F)cc1Br` (stereo partly shown) [compound 29], 3,81^[a].
`CCS(=O)(=O)C[C@H](C)NC(=O)c1c(Br)cccc1C(=O)Nc1ccc(C(F)(C(F)F)C(F)(F)F)cc1Br` (stereo partly shown) [compound 30] came in with a chromatographic logP under setting [3] of 3.06.
Turning to `Cc1c(NC(=O)c2cccc(I)c2C(=O)N[C@@H](C)C[S+](C)[O-])ccc(C(F)(F)C(F)(F)F)c1F` (stereo partly shown) [compound 31], under setting [2], the log p is 2,5^[a].
For `CCSC[C@H](C)NC(=O)c1c(I)cccc1C(=O)Nc1ccc(C(F)(C(F)(F)F)C(F)(F)Br)cc1C` (stereo partly shown) [compound 32], the log p under setting [2] was 4,68.
For `CCSC[C@H](C)NC(=O)c1c(I)cccc1C(=O)Nc1ccc(C(F)(C(F)F)C(F)(F)F)cc1C` (stereo partly shown) [compound 33], the log p is, setting by setting: under setting [2], 3,96^[a] 3,96^[c]; under setting [4], 3,96^[a] 3,96^[c].
As for `CCSC[C@H](C)NC(=O)c1c(I)cccc1C(=O)Nc1ccc(C(F)(C(F)F)C(F)(F)F)cc1Cl` (stereo partly shown) [compound 34], the chromatographic logP was determined as 4.2 under setting [3] and 4.2 under setting [1].
As for `CCSC[C@H](C)NC(=O)c1c(I)cccc1C(=O)Nc1ccc(C(C(F)F)C(F)(F)F)cc1C` (stereo partly shown) [compound 35], the log p reads like this: under setting [2], 3,63; under setting [4], 3,62.
`CSC[C@H](C)NC(=O)c1c(I)cccc1C(=O)Nc1ccc(C(C(F)F)C(F)(F)F)cc1Br` (stereo partly shown) [compound 37]: the log p is, setting by setting: under setting [2], 3,51; under setting [4], 3,54.
As for `CCSC[C@H](C)NC(=O)c1c(I)cccc1C(=O)Nc1ccc(C(C(F)F)C(F)(F)F)cc1Cl` (stereo partly shown) [compound 38], the log p under setting [2] is 3,76 and the log p under setting [4] is given as 3,79.
In turn, `CCSC[C@H](C)NC(=O)c1c(I)cccc1C(=O)Nc1ccc(C(C(F)F)C(F)(F)F)cc1Br` (stereo partly shown) [compound 39] had a chromatographic logP under setting [1] of 3.8. Further, under setting [2], the log p is listed as 3,78.
As to `CCSC[C@H](C)NC(=O)c1c(I)cccc1C(=O)Nc1ccc(C(C(F)F)C(F)(F)F)cc1F` (stereo partly shown) [compound 40], the log p was 3,57^[a] 3,57^[c] under setting [2] and 3,57^[a] 3,57^[c] under setting [4].
`CCS(=O)(=O)C[C@H](C)NC(=O)c1c(I)cccc1C(=O)Nc1ccc(C(F)(C(F)F)C(F)(F)F)cc1Cl` (stereo partly shown) [compound 41]: the log p is 3,12 under setting [2] and 3,18 under setting [4].
For the compound `C[C@@H](CS(C)(=O)=O)NC(=O)c1c(I)cccc1C(=O)Nc1ccc(C(C(F)F)C(F)(F)F)cc1Cl` (stereo partly shown) [compound 42], the log p under setting [2] is given as 2,69 and the log p under setting [4] is recorded as 2,72.
As for `C[C@@H](CS(C)(=O)=O)NC(=O)c1c(I)cccc1C(=O)Nc1ccc(C(C(F)F)C(F)(F)F)cc1Br` (stereo partly shown) [compound 43], the log p is reported as 2,71 under setting [2] and 2,76 under setting [4].
As for `C[C@@H](CS(C)(=O)=O)NC(=O)c1c(I)cccc1C(=O)Nc1ccc(C(F)(C(F)F)C(F)(F)F)cc1F` (stereo partly shown) [compound 44], the log p reads like this: under setting [2], 2,72; under setting [4], 2,76.
For the compound `C[C@@H](CS(C)(=O)=O)NC(=O)c1c(I)cccc1C(=O)Nc1ccc(C(C(F)F)C(F)(F)F)cc1F` (stereo partly shown) [compound 45], under setting [4], the log p was 2,54. The compound also registered a chromatographic logP (pH 2.3) of 2.5.
For the compound `CCS(=O)(=O)C[C@H](C)NC(=O)c1c(I)cccc1C(=O)Nc1ccc(C(C(F)F)C(F)(F)F)cc1Br` (stereo partly shown) [compound 46], the log p reads like this: under setting [2], 2,87; under setting [4], 2,92.
On the same counts, the results for `CCS(=O)(=O)C[C@H](C)NC(=O)c1c(I)cccc1C(=O)Nc1ccc(C(F)(C(F)F)C(F)(F)F)cc1F` (stereo partly shown) [compound 47] are 2,89 and 2,94.
Turning to `CCS(=O)(=O)C[C@H](C)NC(=O)c1c(I)cccc1C(=O)Nc1ccc(C(C(F)F)C(F)(F)F)cc1F` (stereo partly shown) [compound 48], the log p is reported as 2,65 under setting [2] and 2,69 under setting [4].
Consider `Cc1cc(C(F)(C(F)F)C(F)(F)F)ccc1NC(=O)c1cccc(Cl)c1C(=O)N[C@@H](C)CS(C)(=O)=O` (stereo partly shown) [compound 49], for which the log p reads like this: under setting [2], 2,61; under setting [4], 2,64.
As for `Cc1c(NC(=O)c2cccc(Cl)c2C(=O)N[C@@H](C)C[S+](C)[O-])ccc(C(C(F)(F)F)C(F)(F)F)c1F` (stereo partly shown) [compound 51], the log p under setting [4] was 2,41. Further, under “pH 2.3”, the chromatographic logP amounted to 2.5.
On to `Cc1cc(C(C(F)(F)F)C(F)(F)F)c(F)cc1NC(=O)c1cccc(Cl)c1C(=O)N[C@@H](C)C[S+](C)[O-]` (stereo partly shown) [compound 52], for which the log p runs as follows: under setting [2], 2,58; under setting [4], 2,51.
On the same counts, the results for `Cc1cc(C(C(F)(F)F)C(F)(F)F)c(F)cc1NC(=O)c1cccc(Br)c1C(=O)N[C@@H](C)C[S+](C)[O-]` (stereo partly shown) [compound 53] are 2,58 and 2,51.

The values above are taken from EP2033515A1, “Method for improved utilisation of the production potential of transgenic plants” (Bayer CropScience AG, priority 2007, dated 2009).
